Where a name gives a salt, the structure may show the parent alone.
target: T1, recombinant human Estrogen Receptor alpha ligand binding domain, residues 307-554 (ER alpha-LBD (GST)) (Homo sapiens, UniProt P03372); assay: ERα binding assay (LanthaScreen TR-FRET competition); settings: TR-FRET competition with Fluormone ES2 tracer, 4 hours at room temperature; single experiment or average of two or more
T1 construct: made in house
T1 sequence (P03372 307-554): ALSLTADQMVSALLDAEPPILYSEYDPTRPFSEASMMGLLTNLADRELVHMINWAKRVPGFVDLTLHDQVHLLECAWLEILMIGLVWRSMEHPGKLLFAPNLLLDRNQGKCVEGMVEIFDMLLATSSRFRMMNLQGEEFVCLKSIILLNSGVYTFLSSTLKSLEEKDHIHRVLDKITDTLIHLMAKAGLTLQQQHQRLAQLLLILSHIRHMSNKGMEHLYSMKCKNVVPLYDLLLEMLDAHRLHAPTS

Row | SMILES | IC50
1 | CC[C@H](C)[C@H](N)C(=O)O[C@@H]1C[C@@H](C(=O)NCc2ccc(-c3scnc3C)cc2)N(C(=O)[C@@H](NC(=O)COCCOCCOCCOc2cc(F)c([C@@H]3c4[nH]c5ccccc5c4C[C@@H](C)N3CC(C)(C)F)c(F)c2)C(C)(C)C)C1 [Example 99, (3R,5S)-1-((S)-2-(2-(2-(2-(2-(3,5-Difluoro-4-((1R,3R)-2-(2-fluoro-2-methylpropyl)-3-methyl-2,3,4,9-tetrahydro-1H-pyrido[3,4-b]indol-1-yl)phenoxy)ethoxy)ethoxy)ethoxy)acetamido)-3,3-dimethylbutanoyl)-5-((4-(4-methylthiazol-5-yl)benzyl)carbamoyl)pyrrolidin-3-yl L-isoleucinate Formate] | 1200 pM
2 | Cc1ncsc1-c1ccc(CNC(=O)[C@@H]2C[C@@H](O)CN2C(=O)[C@@H](NC(=O)COCCOCCNC(=O)/C=C/c2cc(F)c([C@@H]3c4[nH]c5ccccc5c4C[C@@H](C)N3CC(C)(C)F)c(F)c2)C(C)(C)C)cc1 [Example 58, (2S,4R)-1-((S,E)-2-(tert-butyl)-15-(3,5-difluoro-4-((1R,3R)-2-(2-fluoro-2-methylpropyl)-3-methyl-2,3,4,9-tetrahydro-1H-pyrido[3,4-b]indol-1-yl)phenyl)-4,13-dioxo-6,9-dioxa-3,124-diazapentadec-4-enoyl)-4-hydroxy-N-(4-(4-methylthiazol-5-yl)benzyl)pyrrolidine-2-carboxamide, Trifluoroacetic Acid] | 900 pM
3 | Cc1ncsc1-c1ccc(CNC(=O)[C@@H]2C[C@@H](O)CN2C(=O)[C@@H](NC(=O)COCCOCCOCCOc2cc(F)c([C@@H]3c4[nH]c5ccccc5c4C[C@@H](C)N3CC(F)(F)F)c(F)c2)C(C)(C)C)cc1 [Example 95, (2S,4R)-1-((S)-2-(tert-Butyl)-14-(3,5-difluoro-4-((1R,3R)-3-methyl-2-(2,2,2-trifluoroethyl)-2,3,4,9-tetrahydro-1H-pyrido[3,4-b]indol-1-yl)phenoxy)-4-oxo-6,9,12-trioxa-3-azatetradecanoyl)-4-hydroxy-N-(4-(4-methylthiazol-5-yl)benzyl)pyrrolidine-2-carboxamide] | 1200 pM
4 | Cc1ncsc1-c1ccc(CNC(=O)[C@@H]2C[C@@H](O)CN2C(=O)[C@@H](NC(=O)COc2ccc(OCCNC(=O)/C=C/c3cc(F)c([C@@H]4c5[nH]c6ccccc6c5C[C@@H](C)N4CC(C)(C)F)c(F)c3)cc2)C(C)(C)C)cc1 [Example 61, (2S,4R)-1-((S)-2-(2-(4-(2-((E)-3-(3,5-difluoro-4-((1R,3R)-2-(2-fluoro-2-methylpropyl)-3-methyl-2,3,4,9-tetrahydro-1H-pyrido[3,4-b]indol-1-yl)phenyl)acrylamido)ethoxy)phenoxy)acetamido)-3,3-dimethylbutanoyl)-4-hydroxy-N-(4-(4-methylthiazol-5-yl)benzyl)pyrrolidine-2-carboxamide, Trifluoroacetic Acid] | 1000 pM
5 | Cc1ncsc1-c1ccc(CNC(=O)[C@@H]2C[C@@H](O)CN2C(=O)[C@@H](NC(=O)Cc2ccc(OCCOCCNC(=O)/C=C/c3cc(F)c([C@@H]4c5[nH]c6ccccc6c5C[C@@H](C)N4CC(C)(C)F)c(F)c3)cc2)C(C)(C)C)cc1 [Example 66, (2S,4R)-1-((S)-2-(2-(4-(2-(2-((E)-3-(3,5-difluoro-4-((1R,3R)-2-(2-fluoro-2-methylpropyl)-3-methyl-2,3,4,9-tetrahydro-1H-pyrido[3,4-b]indol-1-yl)phenyl)acrylamido)ethoxy)ethoxy)phenyl)acetamido)-3,3-dimethylbutanoyl)-4-hydroxy-N-(4-(4-methylthiazol-5-yl)benzyl)pyrrolidine-2-carboxamide, Trifluoroacetic Acid] | 1200 pM
6 | Cc1ncsc1-c1ccc(CNC(=O)[C@@H]2C[C@@H](O)CN2C(=O)[C@@H](NC(=O)COCc2ccc(COc3cc(F)c([C@@H]4c5[nH]c6ccccc6c5C[C@@H](C)N4CC(C)(C)F)c(F)c3)nc2)C(C)(C)C)cc1 [Example 85, (2S,4R)-1-((S)-2-(2-((6-((3,5-difluoro-4-((1R,3R)-2-(2-fluoro-2-methylpropyl)-3-methyl-2,3,4,9-tetrahydro-1H-pyrido[3,4-b]indol-1-yl)phenoxy)methyl)pyridin-3-yl)methoxy)acetamido)-3,3-dimethylbutanoyl)-4-hydroxy-N-(4-(4-methylthiazol-5-yl)benzyl)pyrrolidine-2-carboxamide] | 900 pM
7 | Cc1ncsc1-c1ccc(CNC(=O)[C@@H]2C[C@@H](O)CN2C(=O)[C@@H](NC(=O)c2ccc(N3CCN(CCNC(=O)/C=C/c4cc(F)c([C@@H]5c6[nH]c7ccccc7c6C[C@@H](C)N5CC(C)(C)F)c(F)c4)CC3)cc2)C(C)(C)C)cc1 [Example 67, (2S,4R)-1-((S)-2-(4-(4-(2-((E)-3-(3,5-difluoro-4-((1R,3R)-2-(2-fluoro-2-methylpropyl)-3-methyl-2,3,4,9-tetrahydro-1H-pyrido[3,4-b]indol-1-yl)phenyl)acrylamido)ethyl)piperazin-1-yl)benzamido)-3,3-dimethylbutanoyl)-4-hydroxy-N-(4-(4-methylthiazol-5-yl)benzyl)pyrrolidine-2-carboxamide, Trifluoroacetic Acid] | 1100 pM
8 | Cc1ncsc1-c1ccc(CNC(=O)[C@@H]2C[C@@H](O)CN2C(=O)[C@@H](NC(=O)COCCCCCOc2cc(F)c([C@@H]3c4[nH]c5ccccc5c4C[C@@H](C)N3CC3(F)CC3)c(F)c2)C(C)(C)C)cc1 [Example 79, (2S,4R)-1-((S)-2-(2-((5-(3,5-difluoro-4-((1R,3R)-2-((1-fluorocyclopropyl)methyl)-3-methyl-2,3,4,9-tetrahydro-1H-pyrido[3,4-b]indol-1-yl)phenoxy)pentyl)oxy)acetamido)-3,3-dimethylbutanoyl)-4-hydroxy-N-(4-(4-methylthiazol-5-yl)benzyl)pyrrolidine-2-carboxamide] | 900 pM
9 | Cc1ncsc1-c1ccc(CNC(=O)[C@@H]2C[C@@H](O)CN2C(=O)[C@@H](NC(=O)c2cnn(CCOCCNC(=O)/C=C/c3cc(F)c([C@@H]4c5[nH]c6ccccc6c5C[C@@H](C)N4CC(C)(C)F)c(F)c3)c2)C(C)(C)C)cc1 [Example 64, 1-(2-(2-((E)-3-(3,5-difluoro-4-((1R,3R)-2-(2-fluoro-2-methylpropyl)-3-methyl-2,3,4,9-tetrahydro-1H-pyrido[3,4-b]indol-1-yl)phenyl)acrylamido)ethoxy)ethyl)-N—((S)-1-((2S,4R)-4-hydroxy-2-((4-(4-methylthiazol-5-yl)benzyl)carbamoyl)pyrrolidin-5-yl)-3,3-dimethyl-1-oxobutan-2-yl)-1H-pyrazole-4-carboxamide, Trifluoroacetic Acid] | 400 pM
10 | Cc1ncsc1-c1ccc(CNC(=O)[C@@H]2C[C@@H](O)CN2C(=O)[C@@H](NC(=O)COCCOCCOCC(=O)Nc2ccc([C@@H]3c4[nH]c5ccccc5c4C[C@@H](C)N3CC(C)(C)F)cc2)C(C)(C)C)cc1 [Example 57, (2S,4R)-1-((S)-2-(tert-butyl)-14-((4-((1R,3R)-2-(2-fluoro-2-methylpropyl)-3-methyl-2,3,4,9-tetrahydro-1H-pyrido[3,4-b]indol-1-yl)phenyl)amino)-4,14-dioxo-6,9,12-trioxa-3-azatetradecanoyl)-4-hydroxy-N-(4-(4-methylthiazol-5-yl)benzyl)pyrrolidine-2-carboxamide, Trifluoroacetic Acid] | 8800 pM
11 | Cc1ncsc1-c1ccc(CNC(=O)[C@@H]2C[C@@H](O)CN2C(=O)[C@@H](NC(=O)COCCOCCOCCCNC(=O)c2cc(F)c([C@@H]3c4[nH]c5ccccc5c4C[C@@H](C)N3CC(C)(C)F)c(F)c2)C(C)(C)C)cc1 [Example 84, (2S,4R)-1-((S)-16-(tert-Butyl)-1-(3,5-difluoro-4-((1R,3R)-2-(2-fluoro-2-methylpropyl)-3-methyl-2,3,4,9-tetrahydro-1H-pyrido[3,4-b]indol-1-yl)phenyl)-1,14-dioxo-6,9,12-trioxa-2,15-diazaheptadecan-17-oyl)-4-hydroxy-N-(4-(4-methylthiazol-5-yl)benzyl)pyrrolidine-2-carboxamide] | 1300 pM
12 | Cc1ncsc1-c1ccc(CNC(=O)[C@@H]2C[C@@H](O)CN2C(=O)[C@@H](NC(=O)COCCCCCCCOc2cc(F)c([C@@H]3c4[nH]c5ccccc5c4C[C@@H](C)N3CC(F)(F)CO)c(F)c2)C(C)(C)C)cc1 [Example 78, (2S,4R)-1-((S)-2-(2-((7-(4-((1R,3R)-2-(2,2-Difluoro-3-hydroxypropyl)-3-methyl-2,3,4,9-tetrahydro-1H-pyrido[3,4-b]indol-1-yl)-3,5-difluorophenoxy)heptyl)oxy)acetamido)-3,3-dimethylbutanoyl)-4-hydroxy-N-(4-(4-methylthiazol-5-yl)benzyl)pyrrolidine-2-carboxamide] | 500 pM
13 | Cc1ncsc1-c1ccc(CNC(=O)[C@@H]2C[C@@H](O)CN2C(=O)[C@@H](NC(=O)COCCO[C@@H](C)[C@H](C)OCCOc2cc(F)c([C@@H]3c4[nH]c5ccccc5c4C[C@@H](C)N3CC(C)(C)F)c(F)c2)C(C)(C)C)cc1 [Example 82, (2S,4R)-1-((2S,10S,11S)-2-(tert-butyl)-14-(3,5-difluoro-4-((1R,3R)-2-(2-fluoro-2-methylpropyl)-3-methyl-2,3,4,9-tetrahydro-1H-pyrido[3,4-b]indol-1-yl)phenoxy)-10,11-dimethyl-4-oxo-6,9,12-trioxa-3-azatetradecanoyl)-4-hydroxy-N-(4-(4-methylthiazol-5-yl)benzyl)pyrrolidine-2-carboxamide] | 900 pM
14 | Cc1ncsc1-c1ccc(CNC(=O)[C@@H]2C[C@@H](O)CN2C(=O)[C@@H](NC(=O)COCc2ccc(OCCOc3cc(F)c([C@@H]4c5[nH]c6ccccc6c5C[C@@H](C)N4CC(C)(C)F)c(F)c3)cc2)C(C)(C)C)cc1 [Example 4, (2S,4R)-1-((S)-2-(2-((4-(2-(3,5-Difluoro-4-((1R,3R)-2-(2-fluoro-2-methylpropyl)-3-methyl-2,3,4,9-tetrahydro-1H-pyrido[3,4-b]indol-1-yl)phenoxy)ethoxy)benzyl)oxy)acetamido)-3,3-dimethylbutanoyl)-4-hydroxy-N-(4-(4-methylthiazol-5-yl)benzyl)pyrrolidine-2-carboxamide] | 800 pM
